Tests used:
Assay type in all cases: cell-based
[1] = test system: taxadiene synthase; experiment: PCR of taxadiene synthase in Taxus baccata callus cultures; conditions: callus harvested 24 and 48 hours after treatment, 20-25 PCR cycles
Description: Callus was harvested 24 and 48 hours after treatment. An untreated control was also harvested. Samples (500 mg) were frozen in liquid nitrogen and ground to a fine powder. RNA was prepared with an RNEASY™ kit (Qiagen, Valencia, Calif.) as described above.
RNA samples (1.75 μg) from 24 hours post-treatment cultures of Taxus baccata were reverse transcribed using an OMNISCRIPT™ RT kit (Qiagen) with an oligo-dT12-18 primer (Sigma-Aldrich Company, Poole, Dorset, UK). Aliquots (≡0.175 μg RNA) were subject to PCR using a Taq PCR Master Mix kit (Qiagen). Primers were designed from conserved regions of the taxadiene synthases from Taxus chinensis and Taxus brevifolia, and validated by amplification of DNA from Taxus baccata. PCR was carried out at an annealing temperature of 50° C. for 30′; extension was for 1 min at 72° C. Samples were taken after 15, 20, 25, and 30 cycles and run on an agarose gel (FIG. 13). After 20 cycles, a band of the expected size is present in the treated samples (slightly more in the 24 hour harvest) but not in the control.

[2] = test system: S. tectorum suspension culture; experiment: Catechin profiling in Sempervivum tectorum suspension culture; conditions: B49 medium, added on day 7
Description: Catechin derivative profiles in the S. tectorum suspension culture were obtained from incubations in 250 mL conical flasks containing either 100 mL of B88 growth medium or 100 mL of a secondary metabolite production medium B49 (Gamborg's B5 modified to contain 5% sucrose and no hormones) inoculated with 40 mL of 21 day old suspension culture. The cultures were incubated under low light conditions (approximately 30 lux) at 25° C.
Ten milliliters of culture samples were taken at regular intervals for 16 days following the day of subculture to B88 or B49 medium. All culture samples were centrifuged for five minutes at 4000 rpm and the supernatant liquid was removed and frozen. The cell residue was freeze-dried. Extraction, sample preparation, and HPLC analysis were performed as described in Example 1.

[3] = test system: terpene cyclase; experiment: RT-PCR of terpene cyclase in Ajuga reptans cultures; conditions: 24 hours after treatment
Description: To investigate the pattern of regulation of the terpene cyclase identified as described above, primers were synthesized that corresponded to sequence at each end of the RACE fragment. Ajuga reptans cultures were subject to the treatments described above, and RNA collected eight and 24 hours after treatment. RT-PCR was carried out using an […]™ One-Step RT-PCR kit (Clontech Laboratories, Palo Alto, Calif.). […] The primers also appear to be amplifying a constitutive cyclase.

[4] = test system: C. fascicularis suspension culture; experiment: Differential induction of EGCG in Crassula fascicularis suspension culture (HPLC); conditions: B49 medium, treated on day 7 following subculture
Description: Differential induction of catechins in the C. fascicularis suspension culture was performed in 500 mL conical flasks containing 190 mL of either growth medium B105 (modified Gamborg's B5 medium containing 2,4-D (1 mg/L), kinetin (0.1 mg/L), coconut water (100 mL/L), glutamine (10 mM), and 3% sucrose) or a secondary metabolite production medium B49 (Gamborg's B5, 5% sucrose, no hormones), inoculated with 70 mL of 14 day old suspension culture. Cultures were grown for 14 days before harvest and processing. Further cultures grown on production medium B49 were treated using one of each of the following protocols:
(4) A 40 mL aliquot of a day 0 suspension growing on B105 medium was transferred to a 100 mL flask. On day 3, a sterile solution of 5-azacytidine (5-AC) in water was added for a final concentration of 3×10^−5 M, and the resultant mixture was incubated for 11 days. At this point the 40 mL 5-AC-treated culture was subcultured twice before inoculating 190 mL B49 production medium in a 500 mL flask with 70 mL of day 14 suspension. The culture was then treated further according to protocol (2). […]
Lyophilized biomass from 100 mL plant cell culture was extracted three times with 10 mL of boiling aqueous 0.2 M NaH2PO4 solution (total 30 mL). The combined, cooled, extracts were extracted with EtOAc (2×30 mL). The combined EtOAc extracts were then dried under a stream of nitrogen. The samples were dissolved in 50% aqueous acetonitrile at a concentration of 1.0 mg/mL; a 0.1 mL aliquot was transferred into a 0.25 mL glass insert to a 2 mL HPLC vial. The extraction procedure is scalable according to the initial volume of the plant-cell culture used to generate the biomass.
HPLC analyses of compounds in plant cell culture extracts were performed in two systems. System 1 (S1) utilized a Rainin Dynamax SD-200 pumping system, a Varian Dynamax PDA-2 diode array detector, with a Waters XTerra RP 18 (5 μm, 3.0×150 mm) column. The mobile phase was composed from 0.1% acetic acid in H2O (solvent A) and 0.1% acetic acid in acetonitrile (solvent B), at a flow rate of 0.75 mL/min: after maintaining initial conditions (A:B, 95:5) for one minute post-injection, gradient elution was accomplished in a linear fashion over 30 min (to A:B, 40:60). A total of 10 μL of each sample was injected onto the column and eluates were analyzed at a wavelength of 275 nm. System 2 (S2) utilized API-electrospray-LC-MS: a Hewlett Packard series HP1100 with a Waters Xterra RP18 (3.5 μm, 2.1×100 mm) column was used as the inlet for a Micromass Platform-LC, in the positive-ion mode. […] Compounds of interest were detected at 254 nm and as single-charged species via selected-ion monitoring in the mass spectrometer. […]

induction of terpene cyclase (RT-PCR) [3]: induced
SMILES: CC/C=C\CC1C(=O)CCC1CC(=O)OC (stereo not shown) [methyl jasmonate]
induction of taxadiene cyclase [1]: specific induction of the taxadiene cyclase
catechin level [2]: no further increase in catechin level
EGCG (mg/gdwt) two days after treatment [4]: 67 mg/gdwt

Reference: US20030175678A1, “Methods for identifying genes regulating desired cell phenotypes” (priority 2001, published 2003)
